The source made the active and inactive calls. The rule behind the calls is not given here.
Assays:
[1] = tested on: Trypanosoma brucei rhodesiense; assay: Antitrypanosomal activity against Trypanosoma brucei rhodesiense infected in mouse assessed as cure rate at 40 mg/kg, ip administered on day 1 to 3 relative to control; assay type: functional; details: route intraperitoneal
[2] = tested on: Mus musculus; assay: Toxicity in mouse infected with Trypanosoma brucei rhodesiense at 50 mg/kg, ip measured after day 3; assay type: organism-based; set-up: dose 50 mg/kg, route intraperitoneal; details: in vivo
[3] = tested on: Trypanosoma brucei rhodesiense; assay: Antitrypanosomal activity against Trypanosoma brucei rhodesiense infected in mouse assessed as mean survival days at 50 mg/kg, ip administered on day 3 to 6 (reference value: 6 to 10 days); assay type: functional; details: route intraperitoneal
[4] = tested on: Trypanosoma brucei rhodesiense; assay: Antitrypanosomal activity against Trypanosoma brucei rhodesiense infected in mouse assessed as survival more than 60 days without parasitemia relapse at 50 mg/kg, ip administered on day 3 to 6; assay type: functional, organism-based; set-up: dose 50 mg/kg
[5] = tested on: L6; assay: Cytotoxicity against rat L6 cells assessed as cell viability after 70 hrs by MTT assay; assay type: cell-based; details: L6, 70 h
[6] = tested on: Trypanosoma brucei rhodesiense; assay: Antitrypanosomal activity against Trypanosoma brucei rhodesiense STIB900 assessed as parasite growth inhibition after 70 hrs by Alamar blue assay; assay type: functional, organism-based; details: STIB900, 70 h

CS(=O)(=O)O.O=C(Nc1ccc(NC(=O)c2ccc(C3=NCCN3)cc2)cc1)c1ccc(C2=NCCN2)cc1
Activity [1]: 100%
Activity [2]: Non-toxic
MSD [3]: >60 days
Activity [4]: Active
IC50 [5]: 92 µM
IC50 [6]: 0.12 µM

Nc1nc(N)nc(Nc2ccc([As]3SCC(CO)S3)cc2)n1 (stereo unspecified) [MELARSOPROL]
IC50 [5]: 19 µM
IC50 [6]: 0.0038 µM

O=C(NCc1ccc(C2=NCCN2)cc1)c1ccc(C(=O)NCc2ccc(C3=NCCN3)cc2)cc1
IC50 [5]: 92 µM
IC50 [6]: 9.5 µM

CS(=O)(=O)O.O=C(Nc1ccc(C2=NCCN2)cc1)c1ccc(C(=O)Nc2ccc(C3=NCCN3)cc2)cc1
Activity [1]: 100%
MSD [3]: 39 days
IC50 [5]: 110 µM
IC50 [6]: 0.0047 µM

N=C(N)c1ccc(OCCCCCOc2ccc(C(=N)N)cc2)cc1 [PENTAMIDINE ISETHIONATE]
IC50 [5]: 5.1 µM
IC50 [6]: 0.0015 µM

CS(=O)(=O)O.O=C(Nc1cccc(C(=O)Nc2ccc(C3=NCCN3)cc2)c1)c1ccc(C2=NCCN2)cc1
Activity [1]: 100%
Activity [2]: Non-toxic
MSD [3]: >60 days
Activity [4]: Active
IC50 [5]: 99 µM
IC50 [6]: 0.12 µM

O=C(NCc1ccccc1)c1ccc(-c2cc3ccc(C4=NCCN4)cc3[nH]2)cc1
IC50 [5]: 110 µM
IC50 [6]: 2.2 µM

O=C(NCc1ccncc1)c1ccc(-c2cc3ccc(C4=NCCN4)cc3[nH]2)cc1
Activity [1]: 100%
IC50 [5]: 89 µM
IC50 [6]: 0.023 µM

CS(=O)(=O)O.O=C(Nc1ccc(C2=NCCN2)cc1)c1ccc(NC(=O)c2ccc(C3=NCCN3)cc2)cc1
Activity [1]: 100%
Activity [2]: Non-toxic
MSD [3]: >60 days
Activity [4]: Active
IC50 [5]: 50 µM
IC50 [6]: 0.011 µM

CS(=O)(=O)O.O=C(Nc1ccc(C2=NCCN2)cc1)c1ccc(C2=NCCN2)cc1
Activity [1]: 100%
Activity [2]: Non-toxic
MSD [3]: 34 days
IC50 [5]: 68 µM
IC50 [6]: 0.086 µM

O=C(N[C@H]1CC[C@H](NC(=O)c2ccc(C3=NCCN3)cc2)CC1)c1ccc(C2=NCCN2)cc1
IC50 [5]: 130 µM
IC50 [6]: 0.69 µM

O=C(Nc1ccc(C2=NCCN2)cc1)c1ccc(-c2cc3ccc(C4=NCCN4)cc3[nH]2)cc1
Activity [1]: 100%
IC50 [5]: 19 µM
IC50 [6]: 0.0022 µM

CS(=O)(=O)O.O=C(NCc1ccc(C2=NCCN2)cc1)c1ccc(-c2cc3ccc(C4=NCCN4)cc3[nH]2)cc1
Activity [1]: 100%
Activity [2]: Toxic
Activity [4]: inactive
IC50 [5]: 41 µM
IC50 [6]: 0.0015 µM

CS(=O)(=O)O.O=C(Nc1ccc(C2=NCCN2)cc1)c1ccc(-c2ccc(C(=O)Nc3ccc(C4=NCCN4)cc3)cc2)cc1
Activity [1]: 100%
Activity [2]: Non-toxic
MSD [3]: 11 days
Activity [4]: inactive
IC50 [5]: > 150 µM
IC50 [6]: 0.019 µM

O=C(NCc1ccc(C2=NCCN2)cc1)c1cccc(C(=O)NCc2ccc(C3=NCCN3)cc2)c1
IC50 [5]: > 150 µM
IC50 [6]: 64 µM

CS(=O)(=O)O.O=C(Nc1ccc(C2=NCCN2)cc1)c1cccc(C(=O)Nc2ccc(C3=NCCN3)cc2)c1
Activity [1]: 100%
MSD [3]: >60 days
Activity [4]: Active
IC50 [5]: 120 µM
IC50 [6]: 0.051 µM

Source: ChEMBL document CHEMBL3112401, “Activity of diimidazoline amides against African trypanosomiasis” (Bioorg Med Chem Lett, 2014)
